Results taken from patent US20240050358A1, “PERSONAL CARE COMPOSITION” (Conopco, Inc., d/b/a UNILEVER, priority 2020, published 2024).

System: interleukin (IL)-6
Test: Human immune cell line THP-1 in vitro assay: IL-6 by ELISA after LPS co-treatment
Assay type: cell-based
Settings: PMA-differentiated THP1-XBlue cells co-treated with E. coli LPS and composition for 24 hours; supernatant ELISA; percentage to LPS-treated cells (=100%); three repeats
Experimental: Human Immune Cell Line THP-1 In Vitro Assay The following procedure was used to determine the anti-inflammation efficacy: THP1-XBlue™ (Cat No.: thpx-sp, InvivoGen, San Diego, CA) cells were cultured as suspense in RPMI 1640 medium supplemented with 10% fetal bovine serum (FBS), penicillin (10 U/mL)-streptomycin (10 μg/mL) (Gibco, Invitrogen, Carlsbad, CA). Cells were differentiated in 24-well plates at the density of 5×10^5 cells/well with 100 nM phorbol-12-myristate-13-acetate (PMA) for 72 hours. Cells were then co-treated with pure E. coli lipopolysaccharides (LPS) and various compositions in Table 1. […] Expression of IL-6 was calculated as the percentage to LPS-treated cells which was designated as 100%. P value was analysed by Student's t-test comparing combination groups and individual compound groups (expression of IL-6, three repeats for each group).

## CCCCCCC(O)CCCCCCCCCCC(=O)O (stereo not shown) [B, 12-hydroxystearic acid]
  Expression of IL-6 (%): 91.9%
